{
  "source": "PubChem BioAssay AID1963428",
  "about": "(Molecular Pharmacology Branch, DTP, NCI, 2024);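 on viability, T/C: spheroids exposed to compounds for 7 days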",
  "system": "171881-019-R-J1-PDC complex spheroid growth, % test/control",
  "experiment": "Anticancer human tumor 171881-019-R-J1-PDC patient-derived invasive breast carcinoma cell line growth inhibition [Asc]",
  "conditions": "for IC50: curve of first compound; for viability, T/C: stronger effect = lower value",
  "in_short": "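Tumor cells were grown as complex spheroids with human endothelial cells (HUVEC) and human mesenchymal stem cells as stroma. Agents were tested alone and in combination, in half-log steps down from the clinical Cmax, or from 10 microM where Cmax was unknown.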",
  "data": [
    {"smiles": "O=C(c1cc(Cc2n[nH]c(=O)c3ccccc23)ccc1F)N1CCN(C(=O)C2CC2)CC1", "note": "+ Cc1c(S(C)(=O)=O)c(-c2cc(F)cc(N3CCN(c4ccc(NS(=O)(=O)c5ccc(NC(CCN6CCC(C(=O)OCCCP(=O)(O)O)CC6)CSc6ccccc6)c(S(=O)(=O)C(F)(F)F)c5)cc4)CC3)c2)c(-c2ccc(Cl)cc2)n1C(C)C", "values": [
      {"measurement": "IC50", "setting": "second compound 0.1 µM", "value": "> 10", "unit": "µM"},
      {"measurement": "IC50", "setting": "second compound 0.316 µM", "value": "> 10", "unit": "µM"},
      {"measurement": "IC50", "setting": "second compound 1 µM", "value": "> 10", "unit": "µM"},
      {"measurement": "IC50", "setting": "second compound 3.16 µM", "value": "> 10", "unit": "µM"},
      {"measurement": "IC50", "setting": "second compound 10 µM", "value": "> 10", "unit": "µM"},
      {"measurement": "viability, T/C", "setting": "second compound 0.1 µM, first compound 0.0316 µM", "value": 106, "unit": "%"},
      {"measurement": "viability, T/C", "setting": "second compound 0.1 µM, first compound 0.1 µM", "value": 102, "unit": "%"},
      {"measurement": "viability, T/C", "setting": "second compound 0.1 µM, first compound 0.316 µM", "value": 103, "unit": "%"},
      {"measurement": "viability, T/C", "setting": "second compound 0.1 µM, first compound 1 µM", "value": 124, "unit": "%"},
      {"measurement": "viability, T/C", "setting": "second compound 0.1 µM, first compound 3.16 µM", "value": 102, "unit": "%"},
      {"measurement": "viability, T/C", "setting": "second compound 0.1 µM, first compound 10 µM", "value": 111, "unit": "%"},
      {"measurement": "viability, T/C", "setting": "second compound 0.316 µM, first compound 0.0316 µM", "value": 136, "unit": "%"},
      {"measurement": "viability, T/C", "setting": "second compound 0.316 µM, first compound 0.1 µM", "value": 125, "unit": "%"},
      {"measurement": "viability, T/C", "setting": "second compound 0.316 µM, first compound 0.316 µM", "value": 134, "unit": "%"},
      {"measurement": "viability, T/C", "setting": "second compound 0.316 µM, first compound 1 µM", "value": 125, "unit": "%"},
      {"measurement": "viability, T/C", "setting": "second compound 0.316 µM, first compound 3.16 µM", "value": 127, "unit": "%"},
      {"measurement": "viability, T/C", "setting": "second compound 0.316 µM, first compound 10 µM", "value": 134, "unit": "%"},
      {"measurement": "viability, T/C", "setting": "second compound 1 µM, first compound 0.0316 µM", "value": 132, "unit": "%"},
      {"measurement": "viability, T/C", "setting": "second compound 1 µM, first compound 0.1 µM", "value": 136, "unit": "%"},
      {"measurement": "viability, T/C", "setting": "second compound 1 µM, first compound 0.316 µM", "value": 143, "unit": "%"},
      {"measurement": "viability, T/C", "setting": "second compound 1 µM, first compound 1 µM", "value": 168, "unit": "%"},
      {"measurement": "viability, T/C", "setting": "second compound 1 µM, first compound 3.16 µM", "value": 169, "unit": "%"},
      {"measurement": "viability, T/C", "setting": "second compound 1 µM, first compound 10 µM", "value": 180, "unit": "%"},
      {"measurement": "viability, T/C", "setting": "second compound 3.16 µM, first compound 0.0316 µM", "value": 158, "unit": "%"},
      {"measurement": "viability, T/C", "setting": "second compound 3.16 µM, first compound 0.1 µM", "value": 200, "unit": "%"},
      {"measurement": "viability, T/C", "setting": "second compound 3.16 µM, first compound 0.316 µM", "value": 193, "unit": "%"},
      {"measurement": "viability, T/C", "setting": "second compound 3.16 µM, first compound 1 µM", "value": 164, "unit": "%"},
      {"measurement": "viability, T/C", "setting": "second compound 3.16 µM, first compound 3.16 µM", "value": 197, "unit": "%"},
      {"measurement": "viability, T/C", "setting": "second compound 3.16 µM, first compound 10 µM", "value": 184, "unit": "%"},
      {"measurement": "viability, T/C", "setting": "second compound 10 µM, first compound 0.0316 µM", "value": 212, "unit": "%"},
      {"measurement": "viability, T/C", "setting": "second compound 10 µM, first compound 0.1 µM", "value": 208, "unit": "%"},
      {"measurement": "viability, T/C", "setting": "second compound 10 µM, first compound 0.316 µM", "value": 228, "unit": "%"},
      {"measurement": "viability, T/C", "setting": "second compound 10 µM, first compound 1 µM", "value": 227, "unit": "%"},
      {"measurement": "viability, T/C", "setting": "second compound 10 µM, first compound 3.16 µM", "value": 209, "unit": "%"},
      {"measurement": "viability, T/C", "setting": "second compound 10 µM, first compound 10 µM", "value": 175, "unit": "%"}
    ]}
  ]
}
